Measured values as given in ChEMBL document CHEMBL1201862, “PubChem BioAssay data set” (2004).
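How tested: cells in 96-well plates exposed to compound for 48 hours at five concentrations. GI50 is the concentration that inhibits growth by half.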 Calls of active or inactive are those of the source. Cut-off read from the data, not from the text of the source: active = GI50 up to about 1.1 µM and inactive = higher.

Legend:
Test in all cases: DTP human tumour cell line panel, 48 h
HT-29 = test system: HT-29
UACC-62 = test system: UACC-62
IGROV-1 = test system: IGROV-1
SK-OV-3 = test system: SK-OV-3
SW-620 = test system: SW-620
Malme-3M = test system: Malme-3M
M19-MEL = test system: M19-MEL
HCT-116 = test system: HCT-116
UACC-257 = test system: UACC-257
RPMI-8226 = test system: RPMI-8226
HOP-62 = test system: HOP-62
OVCAR-8 = test system: OVCAR-8
XF498 = test system: XF498
U-251 = test system: U-251
HCC 2998 = test system: HCC 2998
SNB-19 = test system: SNB-19
LXFL 529 = test system: LXFL 529
ACHN = test system: ACHN
DMS-273 = test system: DMS-273
NCI-H23 = test system: NCI-H23
COLO 205 = test system: COLO 205
SR = test system: SR
SK-MEL-5 = test system: SK-MEL-5
SF-295 = test system: SF-295
RXF 393 = test system: RXF 393
SN12C = test system: SN12C
A549 = test system: A549
M14 = test system: M14
HCT-15 = test system: HCT-15
DMS-114 = test system: DMS-114
HOP-92 = test system: HOP-92
SK-MEL-28 = test system: SK-MEL-28
HOP-18 = test system: HOP-18
SF-539 = test system: SF-539
SNB-75 = test system: SNB-75
HL-60 = test system: HL-60
A498 = test system: A498
KM-20L2 = test system: KM-20L2
NCI-H226 = test system: NCI-H226
SNB-78 = test system: SNB-78
CCRF-CEM = test system: CCRF-CEM
EKVX = test system: EKVX
MOLT-4 = test system: MOLT-4
NCI-H522 = test system: NCI-H522
OVCAR-4 = test system: OVCAR-4
SF-268 = test system: SF-268
K562 = test system: K562
786-0 = test system: 786-0
UO-31 = test system: UO-31
DLD-1 = test system: DLD-1
OVCAR-5 = test system: OVCAR-5
CAKI-1 = test system: CAKI-1
TK-10 = test system: TK-10
NCI-H460 = test system: NCI-H460
KM12 = test system: KM12
SK-MEL-2 = test system: SK-MEL-2
OVCAR-3 = test system: OVCAR-3
LOX IMVI = test system: LOX IMVI

SMILES: CCOc1ccc(/C=C(\Cl)c2ccc(OC)cc2)cc1
- GI50 (HT-29): > 100 µM (inactive)
- GI50 (UACC-62): > 100 µM (inactive)
- GI50 (IGROV-1): > 100 µM (inactive)
- GI50 (SK-OV-3): > 100 µM (inactive)
- GI50 (SW-620): > 100 µM (inactive)
- GI50 (Malme-3M): > 100 µM (inactive)
- GI50 (M19-MEL): > 100 µM (inactive)
- GI50 (HCT-116): > 100 µM (inactive)
- GI50 (UACC-257): > 100 µM (inactive)
- GI50 (RPMI-8226): > 100 µM (inactive)
- GI50 (HOP-62): > 100 µM (inactive)
- GI50 (OVCAR-8): > 100 µM (inactive)
- GI50 (XF498): > 100 µM (inactive)
- GI50 (U-251): > 100 µM (inactive)
- GI50 (HCC 2998): > 100 µM (inactive)
- GI50 (SNB-19): > 100 µM (inactive)
- GI50 (LXFL 529): > 100 µM (inactive)
- GI50 (ACHN): > 100 µM (inactive)
- GI50 (DMS-273): > 100 µM (inactive)
- GI50 (NCI-H23): > 100 µM (inactive)
- GI50 (COLO 205): > 100 µM (inactive)
- GI50 (SR): > 100 µM (inactive)
- GI50 (SK-MEL-5): > 100 µM (inactive)
- GI50 (SF-295): > 100 µM (inactive)
- GI50 (RXF 393): > 100 µM (inactive)
- GI50 (SN12C): > 100 µM (inactive)
- GI50 (A549): > 100 µM (inactive)
- GI50 (M14): > 100 µM (inactive)
- GI50 (HCT-15): > 100 µM
- GI50 (DMS-114): 78.7 µM (inactive)
- GI50 (HOP-92): > 100 µM (inactive)
- GI50 (SK-MEL-28): > 100 µM (inactive)
- GI50 (HOP-18): > 100 µM (inactive)
- GI50 (SF-539): > 100 µM (inactive)
- GI50 (SNB-75): > 100 µM (inactive)
- GI50 (HL-60): 47.6 µM (inactive)
- GI50 (A498): 25.2 µM (inactive)
- GI50 (KM-20L2): > 100 µM (inactive)
- GI50 (NCI-H226): > 100 µM (inactive)
- GI50 (SNB-78): > 100 µM (inactive)
- GI50 (CCRF-CEM): > 100 µM (inactive)
- GI50 (EKVX): > 100 µM (inactive)
- GI50 (MOLT-4): > 100 µM (inactive)
- GI50 (NCI-H522): > 100 µM (inactive)
- GI50 (OVCAR-4): > 100 µM (inactive)
- GI50 (SF-268): > 100 µM (inactive)
- GI50 (K562): > 100 µM (inactive)
- GI50 (786-0): > 100 µM (inactive)
- GI50 (UO-31): > 100 µM (inactive)
- GI50 (DLD-1): > 100 µM (inactive)

SMILES: Cc1ccc(S(=O)(=O)Nc2cccc3c(=O)nc[nH]c23)cc1
- GI50 (HT-29): > 100 µM (inactive)
- GI50 (OVCAR-5): > 100 µM (inactive)
- GI50 (UACC-62): > 87.1 µM (inactive)
- GI50 (IGROV-1): > 100 µM (inactive)
- GI50 (SK-OV-3): > 100 µM (inactive)
- GI50 (SW-620): > 100 µM (inactive)
- GI50 (Malme-3M): > 100 µM (inactive)
- GI50 (M19-MEL): > 100 µM (inactive)
- GI50 (HCT-116): 99.3 µM (inactive)
- GI50 (UACC-257): > 87.5 µM (inactive)
- GI50 (RPMI-8226): 17.8 µM (inactive)
- GI50 (HOP-62): > 100 µM (inactive)
- GI50 (OVCAR-8): > 100 µM (inactive)
- GI50 (XF498): > 100 µM (inactive)
- GI50 (CAKI-1): > 100 µM (inactive)
- GI50 (U-251): > 100 µM (inactive)
- GI50 (TK-10): > 100 µM (inactive)
- GI50 (HCC 2998): > 82 µM (inactive)
- GI50 (SNB-19): > 100 µM (inactive)
- GI50 (LXFL 529): > 86.7 µM (inactive)
- GI50 (ACHN): 66.8 µM (inactive)
- GI50 (DMS-273): > 100 µM (inactive)
- GI50 (NCI-H23): 90.8 µM (inactive)
- GI50 (COLO 205): > 100 µM (inactive)
- GI50 (SR): 10.7 µM (inactive)
- GI50 (SK-MEL-5): 43.9 µM (inactive)
- GI50 (SF-295): 82.6 µM (inactive)
- GI50 (RXF 393): > 65.3 µM (inactive)
- GI50 (SN12C): > 100 µM (inactive)
- GI50 (NCI-H460): > 100 µM (inactive)
- GI50 (KM12): > 100 µM (inactive)
- GI50 (A549): 72.8 µM (inactive)
- GI50 (M14): > 100 µM (inactive)
- GI50 (HCT-15): 61.5 µM
- GI50 (DMS-114): 31.2 µM (inactive)
- GI50 (HOP-92): > 39.6 µM (inactive)
- GI50 (SK-MEL-2): > 100 µM (inactive)
- GI50 (SK-MEL-28): > 100 µM (inactive)
- GI50 (HOP-18): 53 µM (inactive)
- GI50 (SF-539): > 100 µM (inactive)
- GI50 (SNB-75): > 51.1 µM (inactive)
- GI50 (HL-60): 23.3 µM (inactive)
- GI50 (A498): > 100 µM (inactive)
- GI50 (KM-20L2): > 100 µM (inactive)
- GI50 (NCI-H226): > 94.6 µM (inactive)
- GI50 (SNB-78): > 100 µM (inactive)
- GI50 (CCRF-CEM): 37.2 µM (inactive)
- GI50 (EKVX): > 100 µM (inactive)
- GI50 (MOLT-4): 34.3 µM (inactive)
- GI50 (NCI-H522): 76.6 µM (inactive)
- GI50 (OVCAR-4): > 100 µM (inactive)
- GI50 (SF-268): > 100 µM (inactive)
- GI50 (K562): 43.6 µM (inactive)
- GI50 (786-0): > 100 µM (inactive)
- GI50 (UO-31): > 68.1 µM (inactive)
- GI50 (OVCAR-3): > 100 µM (inactive)
- GI50 (LOX IMVI): 96.6 µM (inactive)
